From ChEMBL document CHEMBL1201862, “PubChem BioAssay data set” (2004)
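96-well plates; 48 h exposure; 5 concentrations. Endpoints by linear interpolation between flanking doses. Not reached: highest tested concentration assigned. The concentration for 50% growth inhibition is given as GI50.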 Calls of active or inactive are those of the source. Rule as the data show it: active = GI50 up to about 1.1 µM and inactive = higher.

Tests used:
Test in all cases: NCI-60 cell line screen, 48 h
UACC-62 = tested on: UACC-62
EKVX = tested on: EKVX
SK-OV-3 = tested on: SK-OV-3
U-251 = tested on: U-251
NCI-H226 = tested on: NCI-H226
PC-3 = tested on: PC-3
IGROV-1 = tested on: IGROV-1
RPMI-8226 = tested on: RPMI-8226
Hs-578T = tested on: Hs-578T
UO-31 = tested on: UO-31
SW-620 = tested on: SW-620
BT-549 = tested on: BT-549
MCF7 = tested on: MCF7
LOX IMVI = tested on: LOX IMVI
SF-268 = tested on: SF-268
HCC 2998 = tested on: HCC 2998
MOLT-4 = tested on: MOLT-4
OVCAR-8 = tested on: OVCAR-8
SNB-75 = tested on: SNB-75
ACHN = tested on: ACHN
CAKI-1 = tested on: CAKI-1
SF-539 = tested on: SF-539
UACC-257 = tested on: UACC-257
DU-145 = tested on: DU-145
NCI-H460 = tested on: NCI-H460
HT-29 = tested on: HT-29
SK-MEL-2 = tested on: SK-MEL-2
A498 = tested on: A498
MDA-MB-231 = tested on: MDA-MB-231
786-0 = tested on: 786-0
TK-10 = tested on: TK-10
HOP-62 = tested on: HOP-62
HL-60 = tested on: HL-60
M14 = tested on: M14
SK-MEL-5 = tested on: SK-MEL-5
SF-295 = tested on: SF-295
RXF 393 = tested on: RXF 393
HCT-116 = tested on: HCT-116
COLO 205 = tested on: COLO 205
MDA-MB-435 = tested on: MDA-MB-435
SK-MEL-28 = tested on: SK-MEL-28
HCT-15 = tested on: HCT-15
NCI/ADR-RES = tested on: NCI/ADR-RES
K562 = tested on: K562
NCI-H23 = tested on: NCI-H23
HOP-92 = tested on: HOP-92
CCRF-CEM = tested on: CCRF-CEM
SNB-19 = tested on: SNB-19
T47D = tested on: T47D
KM12 = tested on: KM12
OVCAR-4 = tested on: OVCAR-4
SR = tested on: SR
OVCAR-5 = tested on: OVCAR-5
Malme-3M = tested on: Malme-3M
NCI-H522 = tested on: NCI-H522
SN12C = tested on: SN12C
OVCAR-3 = tested on: OVCAR-3
A549 = tested on: A549

Question: Which GI50 (UACC-62) does the source give for `O=c1[nH]c2cc(C(F)(F)F)ccc2nc1Cc1ccccc1` here?
Answer: > 100 µM (inactive)

Question: What about the GI50 (EKVX) of the same compound?
Answer: > 100 µM (inactive)

Question: And the GI50 (SK-OV-3)?
Answer: 33 µM (inactive)

Question: What about the GI50 (U-251) of the same compound?
Answer: 76 µM (inactive)

Question: And the GI50 (NCI-H226)?
Answer: > 100 µM (inactive)

Question: And the GI50 (PC-3)?
Answer: > 100 µM (inactive)

Question: What about the GI50 (IGROV-1) of the same compound?
Answer: 46.7 µM (inactive)

Question: What about the GI50 (RPMI-8226) of the same compound?
Answer: > 100 µM (inactive)

Question: What about the GI50 (Hs-578T) of the same compound?
Answer: 34.9 µM (inactive)

Question: What about the GI50 (UO-31) of the same compound?
Answer: 78.3 µM (inactive)

Question: What about the GI50 (SW-620) of the same compound?
Answer: > 100 µM (inactive)

Question: And the GI50 (BT-549)?
Answer: > 100 µM (inactive)

Question: What about the GI50 (MCF7) of the same compound?
Answer: > 100 µM (inactive)

Question: And the GI50 (LOX IMVI)?
Answer: > 100 µM (inactive)

Question: What about the GI50 (SF-268) of the same compound?
Answer: 44.2 µM (inactive)

Question: What about the GI50 (HCC 2998) of the same compound?
Answer: > 100 µM (inactive)

Question: And the GI50 (MOLT-4)?
Answer: > 100 µM (inactive)

Question: What about the GI50 (OVCAR-8) of the same compound?
Answer: 80.2 µM (inactive)

Question: And the GI50 (SNB-75)?
Answer: 41.6 µM (inactive)

Question: And the GI50 (ACHN)?
Answer: 52.6 µM (inactive)

Question: And the GI50 (CAKI-1)?
Answer: 60.4 µM (inactive)

Question: What about the GI50 (SF-539) of the same compound?
Answer: 63.2 µM (inactive)

Question: What about the GI50 (UACC-257) of the same compound?
Answer: > 100 µM (inactive)

Question: And the GI50 (DU-145)?
Answer: > 100 µM (inactive)

Question: And the GI50 (NCI-H460)?
Answer: > 100 µM (inactive)

Question: And the GI50 (HT-29)?
Answer: > 100 µM (inactive)

Question: What about the GI50 (SK-MEL-2) of the same compound?
Answer: > 100 µM (inactive)

Question: And the GI50 (A498)?
Answer: 85.9 µM (inactive)

Question: And the GI50 (MDA-MB-231)?
Answer: 30.8 µM (inactive)

Question: What about the GI50 (786-0) of the same compound?
Answer: 36.6 µM (inactive)

Question: What about the GI50 (TK-10) of the same compound?
Answer: > 100 µM (inactive)

Question: And the GI50 (HOP-62)?
Answer: 28.9 µM (inactive)

Question: What about the GI50 (HL-60) of the same compound?
Answer: > 100 µM (inactive)

Question: And the GI50 (M14)?
Answer: > 100 µM (inactive)

Question: And the GI50 (SK-MEL-5)?
Answer: > 100 µM (inactive)

Question: What about the GI50 (SF-295) of the same compound?
Answer: 40.6 µM (inactive)

Question: And the GI50 (RXF 393)?
Answer: 37.7 µM (inactive)

Question: And the GI50 (HCT-116)?
Answer: 71.6 µM (inactive)

Question: And the GI50 (COLO 205)?
Answer: > 100 µM (inactive)

Question: And the GI50 (MDA-MB-435)?
Answer: > 100 µM (inactive)

Question: What about the GI50 (SK-MEL-28) of the same compound?
Answer: > 100 µM (inactive)

Question: And the GI50 (HCT-15)?
Answer: > 100 µM

Question: What about the GI50 (NCI/ADR-RES) of the same compound?
Answer: 67 µM (inactive)

Question: What about the GI50 (K562) of the same compound?
Answer: 62.2 µM (inactive)

Question: What about the GI50 (NCI-H23) of the same compound?
Answer: 23.4 µM (inactive)

Question: What about the GI50 (HOP-92) of the same compound?
Answer: 18.5 µM (inactive)

Question: What about the GI50 (CCRF-CEM) of the same compound?
Answer: > 100 µM (inactive)

Question: What about the GI50 (SNB-19) of the same compound?
Answer: 66.2 µM (inactive)

Question: And the GI50 (T47D)?
Answer: 38.5 µM (inactive)

Question: And the GI50 (KM12)?
Answer: > 100 µM (inactive)

Question: What about the GI50 (OVCAR-4) of the same compound?
Answer: 63.7 µM (inactive)

Question: What about the GI50 (SR) of the same compound?
Answer: 36.6 µM (inactive)

Question: For `CCOC(=O)C1=C(C(=O)c2ccc(C)cc2)C(c2cccc([N+](=O)[O-])c2)C(C(=O)c2ccc(C)cc2)=C(C(=O)OCC)N1`, which GI50 (UACC-62) is on record?
Answer: 18.2 µM (inactive)

Question: What about the GI50 (OVCAR-5) of the same compound?
Answer: 17.2 µM (inactive)

Question: What about the GI50 (EKVX) of the same compound?
Answer: 24.1 µM (inactive)

Question: And the GI50 (SK-OV-3)?
Answer: 5.92 µM (inactive)

Question: And the GI50 (U-251)?
Answer: 13.1 µM (inactive)

Question: And the GI50 (NCI-H226)?
Answer: 19.1 µM (inactive)

Question: And the GI50 (PC-3)?
Answer: 23.2 µM (inactive)

Question: And the GI50 (IGROV-1)?
Answer: 16.2 µM (inactive)

Question: What about the GI50 (Hs-578T) of the same compound?
Answer: 22 µM (inactive)

Question: What about the GI50 (UO-31) of the same compound?
Answer: 11.4 µM (inactive)

Question: And the GI50 (SW-620)?
Answer: 14.1 µM (inactive)

Question: And the GI50 (Malme-3M)?
Answer: 15.1 µM (inactive)

Question: What about the GI50 (BT-549) of the same compound?
Answer: 21.1 µM (inactive)

Question: And the GI50 (MCF7)?
Answer: 16 µM (inactive)

Question: What about the GI50 (LOX IMVI) of the same compound?
Answer: 17.6 µM (inactive)

Question: What about the GI50 (SF-268) of the same compound?
Answer: 17.7 µM (inactive)

Question: What about the GI50 (MOLT-4) of the same compound?
Answer: 28.6 µM (inactive)

Question: And the GI50 (OVCAR-8)?
Answer: 22.5 µM (inactive)

Question: What about the GI50 (SNB-75) of the same compound?
Answer: 40.9 µM (inactive)

Question: And the GI50 (ACHN)?
Answer: 15.1 µM (inactive)

Question: What about the GI50 (CAKI-1) of the same compound?
Answer: 19.5 µM (inactive)

Question: What about the GI50 (SF-539) of the same compound?
Answer: 12.8 µM (inactive)

Question: And the GI50 (UACC-257)?
Answer: 21.4 µM (inactive)

Question: What about the GI50 (DU-145) of the same compound?
Answer: 16.8 µM (inactive)

Question: And the GI50 (NCI-H460)?
Answer: 31.6 µM (inactive)

Question: What about the GI50 (HT-29) of the same compound?
Answer: 13 µM (inactive)

Question: And the GI50 (SK-MEL-2)?
Answer: 26.1 µM (inactive)

Question: And the GI50 (MDA-MB-231)?
Answer: 13.9 µM (inactive)

Question: What about the GI50 (786-0) of the same compound?
Answer: 16.2 µM (inactive)

Question: What about the GI50 (TK-10) of the same compound?
Answer: 17.2 µM (inactive)

Question: What about the GI50 (HOP-62) of the same compound?
Answer: 19.5 µM (inactive)

Question: And the GI50 (HL-60)?
Answer: 29.8 µM (inactive)

Question: And the GI50 (M14)?
Answer: 18.1 µM (inactive)

Question: And the GI50 (SK-MEL-5)?
Answer: 17.8 µM (inactive)

Question: And the GI50 (SF-295)?
Answer: 16.1 µM (inactive)

Question: What about the GI50 (RXF 393) of the same compound?
Answer: 21 µM (inactive)

Question: What about the GI50 (HCT-116) of the same compound?
Answer: 6.75 µM (inactive)

Question: And the GI50 (COLO 205)?
Answer: 1.95 µM (inactive)

Question: And the GI50 (NCI-H522)?
Answer: 15.6 µM (inactive)

Question: And the GI50 (MDA-MB-435)?
Answer: 16 µM (inactive)

Question: What about the GI50 (SK-MEL-28) of the same compound?
Answer: 17.8 µM (inactive)

Question: And the GI50 (HCT-15)?
Answer: 0.853 µM

Question: What about the GI50 (NCI/ADR-RES) of the same compound?
Answer: 18.2 µM (inactive)

Question: And the GI50 (SN12C)?
Answer: 17.6 µM (inactive)

Question: And the GI50 (K562)?
Answer: 7.24 µM (inactive)

Question: What about the GI50 (NCI-H23) of the same compound?
Answer: 15.8 µM (inactive)

Question: What about the GI50 (OVCAR-3) of the same compound?
Answer: 15.5 µM (inactive)

Question: And the GI50 (CCRF-CEM)?
Answer: 5.69 µM (inactive)

Question: And the GI50 (SNB-19)?
Answer: 6.08 µM (inactive)

Question: And the GI50 (A549)?
Answer: 24.2 µM (inactive)

Question: What about the GI50 (T47D) of the same compound?
Answer: 2.41 µM (inactive)

Question: What about the GI50 (KM12) of the same compound?
Answer: 12.8 µM (inactive)

Question: What about the GI50 (OVCAR-4) of the same compound?
Answer: 25.4 µM (inactive)

Question: What about the GI50 (SR) of the same compound?
Answer: 2.93 µM (inactive)
